The structures appear in SMILES notation. Where two headings read alike, the source gives them in different places.

Data set [1] has as its target T1, MEK1 (Homo sapiens, UniProt Q02750).
T1 construct: purchased Thermo Fisher Scientific Inc. (MEK1, CRAF); Carna Biosciences, Inc. (ERK2)
As to the kind of experiment: MEK1-inhibiting activity, fluorescent polarization method (CRAF/MEK1/ERK2 cascade, IMAP). The class given is biochemical. As for the experimental part:
The MEK1-inhibiting activity of the compounds listed in Table 3 below were evaluated by the fluorescent polarization method as described below.

The target in data set [2] is T2, BRAF (Homo sapiens, UniProt P15056).
T2 construct: purchased Eurofins Genomics KK; (BRAF); Thermo Fisher Scientific Inc. (MEK1)
As to the kind of experiment: BRAF-inhibiting activity, time-resolved fluorescence-fluorescence resonance energy transfer assay. The class given is biochemical. As for the experimental part: The BRAF-inhibiting activity of the compounds listed in Table 3 below was evaluated by the time-resolved fluorescence-fluorescence resonance energy transfer assay as described below.

Data set [3] concerns A549. As to the kind of experiment: Cell proliferation-inhibiting activity (ATP in viable cells, CellTiter-Glo), A549. The class given is cell-based, human. Particulars: A549, 96 h, read-out: A549 IC50. For orientation: ATP-based viability assays read luminescence as a measure of living cells.
For data set [4], the system named is NCI-H2122. As to the kind of experiment: Cell proliferation-inhibiting activity (ATP in viable cells, CellTiter-Glo), NCI-H2122. The class given is cell-based, human. Particulars: NCI-H2122, 96 h, read-out: NCI-H2122 IC50.
The nature of data set [5]: Human liver microsome stability. The class given is in vitro ADME. Particulars: human liver microsomes, pH 7.4. In general terms: Liver microsomes are vesicles of endoplasmic reticulum, rich in cytochrome P450 enzymes.
[6] abbreviates: human lung cancer cells, 4 days.

T1 sequence (Q02750 whole entry): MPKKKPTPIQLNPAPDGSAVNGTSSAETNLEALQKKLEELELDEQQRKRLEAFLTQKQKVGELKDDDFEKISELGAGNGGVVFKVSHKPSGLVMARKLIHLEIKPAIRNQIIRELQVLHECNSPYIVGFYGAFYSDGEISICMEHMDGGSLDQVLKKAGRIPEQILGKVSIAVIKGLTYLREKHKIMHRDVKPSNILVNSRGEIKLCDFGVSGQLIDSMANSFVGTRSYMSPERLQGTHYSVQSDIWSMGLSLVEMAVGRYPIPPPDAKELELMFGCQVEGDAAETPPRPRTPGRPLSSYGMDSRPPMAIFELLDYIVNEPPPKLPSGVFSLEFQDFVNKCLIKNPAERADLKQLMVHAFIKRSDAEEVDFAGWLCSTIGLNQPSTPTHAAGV
T2 sequence (P15056 417-766 limits assumed): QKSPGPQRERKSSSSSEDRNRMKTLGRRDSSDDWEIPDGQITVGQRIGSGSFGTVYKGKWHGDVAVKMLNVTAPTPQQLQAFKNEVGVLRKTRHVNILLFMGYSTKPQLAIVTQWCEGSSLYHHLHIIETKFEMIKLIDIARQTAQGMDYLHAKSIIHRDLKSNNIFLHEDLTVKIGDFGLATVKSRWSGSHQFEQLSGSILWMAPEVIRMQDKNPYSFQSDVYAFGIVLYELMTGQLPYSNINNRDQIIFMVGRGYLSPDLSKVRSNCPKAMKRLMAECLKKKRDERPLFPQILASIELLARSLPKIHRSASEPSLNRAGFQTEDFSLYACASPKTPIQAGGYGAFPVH

A word on the IC50: it is the point on the concentration scale where inhibition reaches its midpoint. As usually defined, the microsomal CLint is the rate of metabolic loss divided by the concentration. Higher therefore signals faster metabolism. For `CNS(=O)(=O)Nc1nccc(Cc2cc(C(N)=O)c(Nc3ccc(I)cc3C)c(F)c2F)c1F` [Compound C-5, 3,4-Difluoro-5-[[3-fluoro-2-(methylsulfamoylamino)pyridin-4-yl]methyl]-2-(4-iodo-2-methylanilino)benzamide], the IC50 is 0.056 µM in data set [1] (Table 3, read-out: MEK1 IC50); 0.003 µM in data set [2] (read-out: BRAF IC50; Table 3); 0.022 µM in data set [3] (setting [6]); 0.004 µM in data set [4] (setting [6]). The molecule further gave a microsomal CLint at 0.99 µM in data set [5] of 29 µL/min/mg.
On to `CCNS(=O)(=O)Nc1nccc(Cc2cc(C(N)=O)c(Nc3ccc(I)cc3F)cc2F)c1F` [Compound I-2, 5-[[2-(Ethylsulfamoylamino)-3-fluoropyridin-4-yl]methyl]-4-fluoro-2-(2-fluoro-4-iodoanilino)benzamide], for which the half-maximal inhibitory concentration (IC50) in data set [1] (Table 3, read-out: MEK1 IC50) was 0.047 µM; in data set [2] (read-out: BRAF IC50; Table 3), 0.003 µM; in data set [3] (setting [6]) it was 0.025 µM; in data set [4] (setting [6]), 0.011 µM. Also, the microsomal CLint at 0.99 µM in data set [5] amounted to 12 µL/min/mg.
`CNS(=O)(=O)Nc1nccc(Cn2cc(C(N)=O)c(Nc3ccc(SC)cc3F)c(F)c2=O)c1F` [Compound N-3, 5-Fluoro-1-[[3-fluoro-2-(methylsulfamoylamino)pyridin-4-yl]methyl]-4-(2-fluoro-4-methylsulfanylanilino)-6-oxopyridine-3-carboxamide]: the IC50 in data set [1] (Table 3, read-out: MEK1 IC50) turned out to be 0.004 µM; in data set [2] (Table 3; read-out: BRAF IC50), 0.005 µM; in data set [3] (Homo sapiens), 0.475 µM; in data set [4] (Homo sapiens), 0.311 µM. For the same molecule, the intrinsic metabolic clearance (microsomal CLint) at 0.99 µM in data set [5] worked out at 19 µL/min/mg.
Regarding `NC(=O)c1cc(Cc2ccnc(NS(=O)(=O)NC3CCOCC3)c2F)c(F)c(F)c1Nc1ccc(I)cc1F` [Compound A-29], the IC50 in data set [1] (Table 3, read-out: MEK1 IC50) turned out to be 0.014 µM; in data set [2] (Table 3; read-out: BRAF IC50), 0.011 µM; in data set [3] (setting [6]), 0.028 µM; in data set [4] (setting [6]) it was 0.006 µM. Also, the microsomal CLint at 0.99 µM in data set [5] came to 18 µL/min/mg.
Regarding `CNS(=O)(=O)Nc1cc(Cc2cc(C(N)=O)c(Nc3ccc(I)cc3F)c(F)c2F)ccn1` [Compound C-3, 3,4-difluoro-2-(2-fluoro-4-iodoanilino)-5-[[2-(methylsulfamoylamino)pyridin-4-yl]methyl]benzamide], the IC50 in data set [1] (Table 3, read-out: MEK1 IC50) worked out at 0.012 µM; in data set [2] (read-out: BRAF IC50; Table 3), 0.003 µM; in data set [3] (setting [6]) it was 0.001 µM; in data set [4] (setting [6]) it was 0.0004 µM. The molecule also registered an intrinsic clearance (microsomal CLint) at 0.99 µM in data set [5] of 9 µL/min/mg.
In the case of `CNS(=O)(=O)Nc1nccc(Cc2cc(C(N)=O)c(Nc3ccc(Br)cc3F)c(F)c2F)c1F` [Compound A-27, 2-(4-bromo-2-fluoroanilino)-3,4-difluoro-5-[[3-fluoro-2-(methylsulfamoylamino)pyridin-4-yl]methyl]benzamide], the half-inhibitory concentration (IC50) stood at 0.032 µM in data set [1] (Table 3, read-out: MEK1 IC50); 0.007 µM in data set [2] (read-out: BRAF IC50; Table 3); 0.024 µM in data set [3] (setting [6]); 0.01 µM in data set [4] (setting [6]). The intrinsic clearance (microsomal CLint) at 0.99 µM in data set [5] came to 4 µL/min/mg.
For the molecule `C#Cc1ccc(Nc2c(C(N)=O)cc(Cc3ccnc(NS(=O)(=O)NCCC)c3F)c(F)c2F)c(F)c1` [Compound A-20, 2-(4-ethynyl-2-fluoroanilino)-3,4-difluoro-5-[[3-fluoro-2-(propylsulfamoylamino)pyridin-4-yl]methyl]benzamide], the IC50 in data set [1] (Table 3, read-out: MEK1 IC50) was 0.023 µM; in data set [2] (Table 3; read-out: BRAF IC50) it was 0.002 µM; in data set [3] (Homo sapiens), 0.007 µM; in data set [4] (Homo sapiens), 0.006 µM. In data set [5], this molecule had a microsomal CLint at 0.99 µM of 14 µL/min/mg.
On to `CNS(=O)(=O)Nc1nccc(Cc2cc(C(N)=O)c(Nc3ccc4sccc4c3)c(F)c2F)c1F` [Compound H-2, 2-(1-Benzothiophen-5-ylamino)-3,4-difluoro-5-[[3-fluoro-2-(methylsulfamoylamino)pyridin-4-yl]methyl]benzamide], for which the half-maximal inhibitory concentration (IC50) was found to be 0.049 µM in data set [1] (Table 3, read-out: MEK1 IC50); 0.002 µM in data set [2] (read-out: BRAF IC50; Table 3); 0.031 µM in data set [3] (setting [6]); 0.016 µM in data set [4] (setting [6]). This molecule also yielded an intrinsic metabolic clearance (microsomal CLint) at 0.99 µM in data set [5] of 77 µL/min/mg.
Regarding `NC(=O)c1cc(Cc2cccc(NS(=O)(=O)C3COC3)c2F)c(F)c(F)c1Nc1ccc(I)cc1F` [Compound E-21], the IC50 in data set [1] (Table 3, read-out: MEK1 IC50) turned out to be 0.189 µM; in data set [2] (read-out: BRAF IC50; Table 3), 0.024 µM; in data set [3] (setting [6]), 0.03 µM; in data set [4] (setting [6]), 0.014 µM. The molecule further registered a microsomal CLint at 0.99 µM in data set [5] of 13 µL/min/mg.
Regarding `CC(O)CNS(=O)(=O)Nc1nccc(Cc2cc(C(N)=O)c(Nc3ccc(I)cc3F)c(F)c2F)c1F` (racemic) [Compound A-17, (+/-)-3,4-difluoro-5-[[3-fluoro-2-(2-hydroxypropylsulfamoylamino)pyridin-4-yl]methyl]-2-(2-fluoro-4-iodoanilino)benzamide], the half-maximal inhibitory concentration (IC50) in data set [1] turned out to be 0.006 µM; in data set [2] (Table 3; read-out: BRAF IC50), 0.004 µM; in data set [3] (setting [6]), 0.053 µM; in data set [4] (setting [6]), 0.015 µM. This molecule showed a microsomal CLint at 0.99 µM in data set [5] of 6 µL/min/mg.
For the molecule `COCCNS(=O)(=O)Nc1cc(Cc2cc(C(N)=O)c(Nc3ccc(I)cc3F)c(F)c2F)ccn1` [Compound C-2, 3,4-Difluoro-2-(2-fluoro-4-iodoanilino)-5-[[2-(2-methoxyethylsulfamoylamino)pyridin-4-yl]methyl]benzamide], the 50% inhibitory concentration (IC50) in data set [1] (Table 3, read-out: MEK1 IC50) is 0.104 µM; in data set [2] (read-out: BRAF IC50; Table 3) it was 0.002 µM; in data set [3] (setting [6]), 0.016 µM; in data set [4] (setting [6]), 0.007 µM. In data set [5], this molecule returned an intrinsic metabolic clearance (microsomal CLint) at 0.99 µM of 17 µL/min/mg.
As to `NC(=O)c1cc(Cc2ccnc(NS(=O)(=O)NCCO)c2F)c(F)c(F)c1Nc1ccc(I)cc1F` [Compound B-9, 3,4-Difluoro-5-[[3-fluoro-2-(2-hydroxyethylsulfamoylamino)pyridin-4-yl]methyl]-2-(2-fluoro-4-iodoanilino)benzamide], the half-inhibitory concentration (IC50) in data set [1] (Table 3, read-out: MEK1 IC50) was 0.002 µM; in data set [2] (read-out: BRAF IC50; Table 3), 0.004 µM; in data set [3] (setting [6]), 0.01 µM; in data set [4] (setting [6]), 0.007 µM. The same molecule showed a microsomal CLint at 0.99 µM in data set [5] of 11 µL/min/mg.
In the case of `CCS(=O)(=O)Nc1nccc(Cc2cc(C(N)=O)c(Nc3ccc(I)cc3F)c(F)c2F)c1F` [Compound A-38, 5-[[2-(Ethylsulfonylamino)-3-fluoropyridin-4-yl]methyl]-3,4-difluoro-2-(2-fluoro-4-iodoanilino)benzamide], the IC50 was 0.016 µM in data set [1] (Table 3, read-out: MEK1 IC50); 0.003 µM in data set [2] (read-out: BRAF IC50; Table 3); 0.066 µM in data set [3] (setting [6]); 0.015 µM in data set [4] (setting [6]). Further, the microsomal CLint at 0.99 µM in data set [5] was determined as 17 µL/min/mg.
For `COCCNS(=O)(=O)Nc1cccc(Cc2cc(C(N)=O)c(Nc3ccc(I)cc3F)c(F)c2F)c1F` [Compound D-1, 3,4-Difluoro-2-(2-fluoro-4-iodoanilino)-5-[[2-fluoro-3-(2-methoxyethylsulfamoylamino)phenyl]methyl]benzamide], in that order: 0.096 µM, 0.001 µM, 0.009 µM, 0.005 µM and 25 µL/min/mg.
For `CNS(C)(=O)=Nc1cc(Cc2cc(C(N)=O)c(Nc3ccc(I)cc3F)c(F)c2F)ccn1` (stereo not shown) [Compound C-4, 3,4-Difluoro-2-(2-fluoro-4-iodoanilino)-5-[[2-[[methyl-(methylamino)-oxo-λ6-sulfanylidene]amino]pyridin-4-yl]methyl]benzamide], in that order: 0.224 µM, 0.023 µM, 0.007 µM, 0.043 µM and 40 µL/min/mg.
`CNS(=O)(=O)Nc1cccc(Cc2cc(C(N)=O)c(Nc3ccc(I)cc3F)c(F)c2F)c1` [Compound F-1, 3,4-Difluoro-2-(2-fluoro-4-iodoanilino)-5-[[3-(methylsulfamoylamino)phenyl]methyl]benzamide]: the IC50 in data set [1] (Table 3, read-out: MEK1 IC50) is 0.246 µM; in data set [2] (read-out: BRAF IC50; Table 3), 0.005 µM; in data set [3] (setting [6]), 0.007 µM; in data set [4] (setting [6]) it was 0.003 µM. This molecule registered an intrinsic clearance (microsomal CLint) at 0.99 µM in data set [5] of 10 µL/min/mg.
`CNS(=O)(=O)Nc1nccc(Cc2cc(C(=O)NOC)c(Nc3ccc(Cl)cc3F)c(F)c2F)c1F` [Compound G-4, 2-(4-Chloro-2-fluoroanilino)-3,4-difluoro-5-[[3-fluoro-2-(methylsulfamoylamino)pyridin-4-yl]methyl]-N-methoxybenzamide]: the IC50 in data set [1] (Table 3, read-out: MEK1 IC50) was determined as 0.053 µM; in data set [2] (read-out: BRAF IC50; Table 3) it was 0.004 µM; in data set [3] (setting [6]), 0.028 µM; in data set [4] (setting [6]), 0.012 µM. In data set [5], this molecule had an intrinsic metabolic clearance (microsomal CLint) at 0.99 µM of 26 µL/min/mg.
Turning to `CCS(=O)(=O)Nc1cccc(Cc2cc(C(=O)NC3CC3)c(Nc3ccc(I)cc3F)n(C)c2=O)c1F` [Compound K-8, N-Cyclopropyl-5-[[3-(ethylsulfonylamino)-2-fluorophenyl]methyl]-2-(2-fluoro-4-iodoanilino)-1-methyl-6-oxopyridine-3-carboxamide], the 50% inhibitory concentration (IC50) in data set [1] (Table 3, read-out: MEK1 IC50) came out at 0.209 µM; in data set [2] (read-out: BRAF IC50; Table 3) it was 0.014 µM; in data set [3] (setting [6]), 0.068 µM; in data set [4] (setting [6]), 0.029 µM. Moreover, in data set [5], the intrinsic metabolic clearance (microsomal CLint) at 0.99 µM came out at 103 µL/min/mg.
For `NC(=O)c1cc(Cc2ccnc(NS(=O)(=O)NC34CC(C3)C4)c2F)c(F)c(F)c1Nc1ccc(I)cc1F` [Compound A-28, 5-[[2-(1-Bicyclo[1.1.1]pentanylsulfamoylamino)-3-fluoropyridin-4-yl]methyl]-3,4-difluoro-2-(2-fluoro-4-iodoanilino)benzamide], in that order: 0.013 µM, 0.009 µM, 0.005 µM, 0.002 µM and 11 µL/min/mg.
`C=Cc1ccc(Nc2c(C(N)=O)cc(Cc3ccnc(NS(=O)(=O)NC)c3F)c(F)c2F)c(F)c1` [Compound A-19, 2-(4-Ethenyl-2-fluoroanilino)-3,4-difluoro-5-[[3-fluoro-2-(methylsulfamoylamino)pyridin-4-yl]methyl]benzamide]: the IC50 in data set [1] (Table 3, read-out: MEK1 IC50) was 0.03 µM; in data set [2] (Table 3; read-out: BRAF IC50) it was 0.003 µM; in data set [3] (Homo sapiens), 0.006 µM; in data set [4] (Homo sapiens) it was 0.005 µM. For the same molecule, in data set [5], the microsomal CLint at 0.99 µM was found to be 35 µL/min/mg.

These data come from EP4725941A1, “ARYLAMIDE DERIVATIVE HAVING ANTITUMOR ACTIVITY” (priority 2020, dated 2021).
